Laboratory results taken from the supplement of paper PMC12463676, “Small-molecule dissolution of stress granules by redox modulation benefits ALS models” (Nature Chemical Biology, 2025).

Key:
[1] = compound: NC(=O)CCCCC1CCSS1 [lipoamide]; experiment: thermal stability z-score vs DMSO; higher = more thermally stabilized by treatment; conditions: HeLa, lipoamide concentration 100 µM
Method: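 Cellular thermal proteome profiling in HeLa cells. Cells were treated with 100 µM lipoamide for 1 h, with or without 1 mM arsenate for a further 1 h, then heated to ten temperatures (37-66.3 °C), and soluble protein was quantified by TMT mass spectrometry relative to 0.1% DMSO controls. The thermal stability score (sum of log2 fold changes minus the abundance score) was transformed to a z-score; mean of n = 3 experiments.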

[2] = compound: O=[As]([O-])(O)O.[K+] [potassium arsenate]; experiment: as above; conditions: HeLa; arsenate concentration 1 mM
Method: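 Cellular thermal proteome profiling in HeLa cells treated with 1 mM arsenate for 1 h (DMSO pretreatment), heated to ten temperatures (37-66.3 °C). Soluble protein was quantified by TMT mass spectrometry relative to DMSO controls; the thermal stability score was transformed to a z-score; mean of n = 3 experiments.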

[3] = arsenate co-treatment: 1 mM arsenate 1 h
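Also: each temperature applied for 3 min, abundance score taken as mean log2 fold change at the two lowest temperatures, z-score obtained by mean subtraction and division by SD.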

Sequence of UniProt Q8WVT3 (Q8WVT3 whole entry): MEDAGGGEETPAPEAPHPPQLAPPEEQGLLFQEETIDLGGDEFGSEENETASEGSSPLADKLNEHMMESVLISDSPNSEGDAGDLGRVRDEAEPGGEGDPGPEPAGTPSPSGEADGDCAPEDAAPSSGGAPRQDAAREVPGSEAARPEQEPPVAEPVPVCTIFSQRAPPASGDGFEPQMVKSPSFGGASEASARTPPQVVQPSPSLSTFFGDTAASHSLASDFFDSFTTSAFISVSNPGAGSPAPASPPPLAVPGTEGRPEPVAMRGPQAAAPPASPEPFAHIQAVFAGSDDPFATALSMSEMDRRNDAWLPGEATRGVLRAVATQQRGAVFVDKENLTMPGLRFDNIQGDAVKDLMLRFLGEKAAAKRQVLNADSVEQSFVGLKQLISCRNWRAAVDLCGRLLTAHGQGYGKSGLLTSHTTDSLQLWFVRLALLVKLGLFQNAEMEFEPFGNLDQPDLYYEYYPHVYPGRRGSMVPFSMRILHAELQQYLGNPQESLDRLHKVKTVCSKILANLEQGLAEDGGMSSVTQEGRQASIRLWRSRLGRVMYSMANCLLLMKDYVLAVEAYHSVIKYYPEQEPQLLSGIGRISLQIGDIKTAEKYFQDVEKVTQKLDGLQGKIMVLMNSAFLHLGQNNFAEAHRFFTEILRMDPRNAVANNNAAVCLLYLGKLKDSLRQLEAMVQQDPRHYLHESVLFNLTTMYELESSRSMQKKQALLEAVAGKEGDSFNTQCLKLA
Sequence of UniProt O00291 (O00291 whole entry): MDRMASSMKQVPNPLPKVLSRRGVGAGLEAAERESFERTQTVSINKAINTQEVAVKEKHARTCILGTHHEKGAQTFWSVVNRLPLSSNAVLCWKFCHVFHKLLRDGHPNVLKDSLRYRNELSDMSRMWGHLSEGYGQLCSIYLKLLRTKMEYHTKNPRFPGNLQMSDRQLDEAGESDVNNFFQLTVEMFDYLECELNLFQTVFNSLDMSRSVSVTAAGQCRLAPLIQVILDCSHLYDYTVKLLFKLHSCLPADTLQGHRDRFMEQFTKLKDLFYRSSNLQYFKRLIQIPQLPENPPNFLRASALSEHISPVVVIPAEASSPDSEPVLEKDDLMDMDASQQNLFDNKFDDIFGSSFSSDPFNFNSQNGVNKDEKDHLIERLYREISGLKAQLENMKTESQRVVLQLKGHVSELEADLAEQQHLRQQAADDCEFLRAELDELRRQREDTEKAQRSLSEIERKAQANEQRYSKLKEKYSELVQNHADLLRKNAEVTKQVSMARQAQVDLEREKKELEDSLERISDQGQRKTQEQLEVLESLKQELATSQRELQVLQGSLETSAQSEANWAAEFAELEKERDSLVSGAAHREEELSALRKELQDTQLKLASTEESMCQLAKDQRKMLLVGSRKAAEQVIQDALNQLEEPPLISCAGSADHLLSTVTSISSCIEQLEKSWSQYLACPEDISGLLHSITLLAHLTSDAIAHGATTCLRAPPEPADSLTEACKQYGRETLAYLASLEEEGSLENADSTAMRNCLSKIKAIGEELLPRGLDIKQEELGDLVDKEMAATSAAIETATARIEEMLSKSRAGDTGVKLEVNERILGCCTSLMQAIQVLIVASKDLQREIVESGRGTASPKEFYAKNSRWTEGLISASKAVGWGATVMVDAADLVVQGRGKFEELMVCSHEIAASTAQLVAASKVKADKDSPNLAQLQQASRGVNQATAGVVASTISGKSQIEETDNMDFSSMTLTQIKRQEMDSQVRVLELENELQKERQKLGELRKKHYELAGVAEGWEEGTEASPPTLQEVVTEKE
Sequence of UniProt Q9H6Y2 (Q9H6Y2 whole entry): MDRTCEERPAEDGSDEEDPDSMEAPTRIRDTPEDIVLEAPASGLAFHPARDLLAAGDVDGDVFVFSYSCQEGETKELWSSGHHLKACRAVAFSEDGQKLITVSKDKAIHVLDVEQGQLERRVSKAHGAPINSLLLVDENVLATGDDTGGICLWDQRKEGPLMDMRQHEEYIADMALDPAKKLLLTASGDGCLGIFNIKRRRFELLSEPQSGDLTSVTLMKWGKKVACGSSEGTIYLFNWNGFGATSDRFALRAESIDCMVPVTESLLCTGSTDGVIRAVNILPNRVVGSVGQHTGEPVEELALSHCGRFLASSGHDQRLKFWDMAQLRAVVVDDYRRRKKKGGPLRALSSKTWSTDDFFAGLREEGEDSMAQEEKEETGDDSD
Sequence of UniProt Q330K2 (Q330K2 whole entry): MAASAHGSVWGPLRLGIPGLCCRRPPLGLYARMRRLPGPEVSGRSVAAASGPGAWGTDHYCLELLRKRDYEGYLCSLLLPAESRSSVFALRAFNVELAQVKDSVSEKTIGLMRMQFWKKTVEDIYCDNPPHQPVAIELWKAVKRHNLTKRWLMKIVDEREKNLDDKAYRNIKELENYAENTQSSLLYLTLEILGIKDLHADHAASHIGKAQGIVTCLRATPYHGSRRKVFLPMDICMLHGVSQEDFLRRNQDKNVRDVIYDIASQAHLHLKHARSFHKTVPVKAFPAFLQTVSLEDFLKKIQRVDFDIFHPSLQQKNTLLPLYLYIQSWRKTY
Sequence of UniProt P38935 (P38935 whole entry): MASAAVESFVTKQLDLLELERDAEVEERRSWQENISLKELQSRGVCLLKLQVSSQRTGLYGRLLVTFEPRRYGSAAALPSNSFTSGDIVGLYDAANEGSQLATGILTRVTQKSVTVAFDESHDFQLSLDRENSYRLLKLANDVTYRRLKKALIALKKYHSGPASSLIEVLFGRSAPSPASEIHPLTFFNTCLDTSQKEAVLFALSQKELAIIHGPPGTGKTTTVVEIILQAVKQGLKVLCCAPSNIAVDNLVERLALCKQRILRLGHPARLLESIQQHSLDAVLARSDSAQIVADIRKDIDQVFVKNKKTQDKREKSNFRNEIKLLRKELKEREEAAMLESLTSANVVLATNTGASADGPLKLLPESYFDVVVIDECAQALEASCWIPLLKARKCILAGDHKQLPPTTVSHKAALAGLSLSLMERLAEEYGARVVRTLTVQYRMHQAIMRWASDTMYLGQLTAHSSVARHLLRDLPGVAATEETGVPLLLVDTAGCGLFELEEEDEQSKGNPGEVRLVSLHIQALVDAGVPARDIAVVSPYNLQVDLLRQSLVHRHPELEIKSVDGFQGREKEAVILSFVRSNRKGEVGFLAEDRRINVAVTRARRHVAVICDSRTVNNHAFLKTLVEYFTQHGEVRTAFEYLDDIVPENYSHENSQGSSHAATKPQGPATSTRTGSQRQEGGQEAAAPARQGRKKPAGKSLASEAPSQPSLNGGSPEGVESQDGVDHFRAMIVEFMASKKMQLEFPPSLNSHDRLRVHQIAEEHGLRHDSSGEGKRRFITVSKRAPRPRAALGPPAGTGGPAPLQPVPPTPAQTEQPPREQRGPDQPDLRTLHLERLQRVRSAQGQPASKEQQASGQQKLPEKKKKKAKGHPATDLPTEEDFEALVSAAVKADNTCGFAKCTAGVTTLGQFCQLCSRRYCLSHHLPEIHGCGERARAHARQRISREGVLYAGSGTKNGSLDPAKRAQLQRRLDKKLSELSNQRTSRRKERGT
Sequence of UniProt O15541 (O15541 whole entry): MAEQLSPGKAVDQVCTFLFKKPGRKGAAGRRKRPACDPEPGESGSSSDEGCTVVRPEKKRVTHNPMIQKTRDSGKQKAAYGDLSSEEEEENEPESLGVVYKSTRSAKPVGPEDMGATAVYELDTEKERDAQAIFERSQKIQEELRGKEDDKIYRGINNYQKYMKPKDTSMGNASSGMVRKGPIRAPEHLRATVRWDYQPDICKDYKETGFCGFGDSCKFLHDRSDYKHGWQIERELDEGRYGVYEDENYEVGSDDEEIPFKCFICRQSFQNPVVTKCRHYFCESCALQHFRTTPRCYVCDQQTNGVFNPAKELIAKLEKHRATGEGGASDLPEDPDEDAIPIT
Sequence of UniProt P51812 (P51812 whole entry): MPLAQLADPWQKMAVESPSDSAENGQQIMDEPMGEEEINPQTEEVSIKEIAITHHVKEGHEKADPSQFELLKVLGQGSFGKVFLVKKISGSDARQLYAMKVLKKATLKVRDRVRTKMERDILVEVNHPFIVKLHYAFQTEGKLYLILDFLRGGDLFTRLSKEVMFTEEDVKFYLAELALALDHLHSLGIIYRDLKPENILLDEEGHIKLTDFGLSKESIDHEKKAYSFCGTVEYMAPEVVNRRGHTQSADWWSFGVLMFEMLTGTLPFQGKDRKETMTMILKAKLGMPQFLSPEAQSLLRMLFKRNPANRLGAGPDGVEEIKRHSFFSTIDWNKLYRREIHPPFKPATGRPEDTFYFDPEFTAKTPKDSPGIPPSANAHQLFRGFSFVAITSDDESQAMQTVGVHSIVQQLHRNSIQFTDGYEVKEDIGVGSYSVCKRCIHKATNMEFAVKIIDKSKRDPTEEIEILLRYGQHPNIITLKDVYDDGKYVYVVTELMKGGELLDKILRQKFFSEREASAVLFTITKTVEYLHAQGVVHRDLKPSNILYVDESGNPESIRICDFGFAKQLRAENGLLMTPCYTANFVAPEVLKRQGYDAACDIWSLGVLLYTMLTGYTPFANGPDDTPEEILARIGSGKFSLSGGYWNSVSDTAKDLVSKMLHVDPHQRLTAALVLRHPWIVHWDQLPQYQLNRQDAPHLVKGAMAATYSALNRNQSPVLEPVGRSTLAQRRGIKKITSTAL
Sequence of UniProt Q00688 (Q00688 whole entry): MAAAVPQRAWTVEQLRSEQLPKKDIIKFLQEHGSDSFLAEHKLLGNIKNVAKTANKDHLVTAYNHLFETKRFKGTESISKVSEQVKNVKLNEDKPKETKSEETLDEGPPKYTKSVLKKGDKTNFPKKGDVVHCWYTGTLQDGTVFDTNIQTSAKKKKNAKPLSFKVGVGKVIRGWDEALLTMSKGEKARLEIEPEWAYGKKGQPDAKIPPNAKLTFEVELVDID
Sequence of UniProt Q96BR5 (Q96BR5 whole entry): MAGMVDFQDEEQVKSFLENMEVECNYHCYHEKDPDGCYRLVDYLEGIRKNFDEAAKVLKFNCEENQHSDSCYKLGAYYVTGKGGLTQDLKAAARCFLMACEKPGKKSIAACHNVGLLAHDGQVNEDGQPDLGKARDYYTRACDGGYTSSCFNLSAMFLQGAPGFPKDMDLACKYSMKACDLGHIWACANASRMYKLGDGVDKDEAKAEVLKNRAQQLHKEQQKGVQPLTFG

Target	thermal stability z-score [1, 3]	thermal stability z-score ([1]; arsenate co-treatment: none)	thermal stability z-score [2]
FKBP3 (UniProt Q00688)	0.676	0.552	-0.406
HSD17B10 (UniProt Q99714)	0.921	0.151	-1.29
APEX1 (UniProt P27695)	-0.558	0.406	-0.345
NSMAF (UniProt Q92636)	-0.123	-0.458	-0.758
RPS23 (UniProt P62266)	-0.0441	0.207	-0.0437
CCDC94 (UniProt Q9BW85)	-0.377	-0.352	-0.951
HEATR3 (UniProt Q7Z4Q2)	-0.189	0.0325	0.285
WDR62 (UniProt O43379)	-0.259	-0.153	-0.0901
ATRN (UniProt O75882)	0.622	-0.532	0.705
PGS1 (UniProt Q32NB8)	0.522	0.683	-0.266
SMARCC1 (UniProt Q92922)	0.791	1.14	-0.204
TACC2 (UniProt O95359)	0.243	0.134	0.409
PRDX4 (UniProt Q13162)	0.155	0.76	0.674
POLA1 (UniProt P09884)	-0.387	0.167	-0.306
EIF2B5 (UniProt Q13144)	-0.392	0.253	0.878
DHTKD1 (UniProt Q96HY7)	-0.237	0.0606	-0.558
GGNBP2 (UniProt Q9H3C7)	0.141	0.168	-1.84
TRIM26 (UniProt Q12899)	-0.368	-0.0684	0.295
DHRS13 (UniProt Q6UX07)	0.049	0.274	0.0183
PPP3R1 (UniProt P63098)	0.0623	0.412	0.32
MBP (UniProt P02686)	1.96	0.197	0.222
HDHD2 (UniProt Q9H0R4)	0.338	0.00313	-0.185
COA7 (UniProt Q96BR5)	0.203	0.0661	-0.364
ZFAND1 (UniProt Q8TCF1)	0.233	0.29	-0.247

Target	thermal stability z-score [1, 3]	thermal stability z-score ([1]; arsenate co-treatment: none)	thermal stability z-score [2]
FMNL1 (UniProt O95466)	-0.412	-0.507	-0.153
BTN3A2 (UniProt P78410)	0.00462	0.0294	-1.15
CHMP1B (UniProt Q7LBR1)	-0.234	0.171	0.0259
RNASEH2B (UniProt Q5TBB1)	0.719	0.517	-0.161
SQSTM1 (UniProt Q13501)	-0.226	-0.109	0.758
LARP4B (UniProt Q92615)	0.048	0.174	-0.111
TBC1D4 (UniProt O60343)	-0.14	0.292	0.51
ASAH1 (UniProt Q13510)	-0.162	-0.738	0.065
APRT (UniProt P07741)	0.387	0.419	0.345
HIP1 (UniProt O00291)	0.0784	0.0537	0.215
SCP2 (UniProt P22307)	0.374	0.0992	-0.257
TRAPPC12 (UniProt Q8WVT3)	-0.757	-1.04	0.0727
TPI1 (UniProt P60174)	0.408	0.0882	-0.48
NSDHL (UniProt Q15738)	0.566	0.0586	-0.401
EIF4G2 (UniProt P78344)	-0.0525	0.548	0.233
MAPRE3 (UniProt Q9UPY8)	0.142	-0.216	-0.102
TRIM65 (UniProt Q6PJ69)	-0.203	-0.225	-0.189
ESF1 (UniProt Q9H501)	0.105	0.129	0.24
MARCKS (UniProt P29966)	0.62	0.121	0.943
RNF113A (UniProt O15541)	-0.642	-0.0196	-0.554
TRMT11 (UniProt Q7Z4G4)	0.259	-0.151	-0.518
UBAP1 (UniProt Q9NZ09)	-1.2	-0.177	-0.964
NDUFAF6 (UniProt Q330K2)	0.234	0.0618	0.0349
DPH2 (UniProt Q9BQC3)	-0.0475	-0.355	-1.17

Target	thermal stability z-score [1, 3]	thermal stability z-score ([1]; arsenate co-treatment: none)	thermal stability z-score [2]
NARF (UniProt Q9UHQ1)	0.102	-0.133	-0.0435
NEDD4L (UniProt Q96PU5)	-0.314	-0.354	0.0653
SLC38A2 (UniProt Q96QD8)	0.351	0.272	0.774
SLC30A7 (UniProt Q8NEW0)	-1.48	-1.78	0.418
DGAT1 (UniProt O75907)	-0.44	-0.27	-0.264
NAV2 (UniProt Q8IVL1)	0.0134	-0.0355	-0.055
OSBPL5 (UniProt Q9H0X9)	-0.28	-0.534	-0.386
ELAVL2 (UniProt Q12926)	-0.19	-0.197	-0.564
L2HGDH (UniProt Q9H9P8)	-0.736	-0.362	0.523
SLC20A1 (UniProt Q8WUM9)	0.249	0.0269	-0.23
HADH (UniProt Q16836)	0.136	0.477	-0.432
CCT2 (UniProt P78371)	0.119	-0.107	-0.0294
TIAL1 (UniProt Q01085)	-0.227	0.0243	-1.23
TRMU (UniProt O75648)	-0.59	-0.509	-0.558
CLUH (UniProt O75153)	0.336	1.47	-0.134
ACAD9 (UniProt Q9H845)	0.127	0.0316	-0.21
WDR55 (UniProt Q9H6Y2)	0.00122	-0.679	-1.7
RPS6KA3 (UniProt P51812)	-0.607	-0.345	0.388
PAFAH1B1 (UniProt P43034)	0.258	-0.161	-0.241
ST7 (UniProt Q9NRC1)	-0.0918	0.0296	-1.16
IGHMBP2 (UniProt P38935)	0.0798	0.0388	-0.187
RASSF1 (UniProt Q9NS23)	-0.0475	0.04	-0.089
TLCD1 (UniProt Q96CP7)	-0.0961	-0.035	0.587
